Data from US11548894B2, “Benzamide or benzamine compounds useful as anticancer agents for the treatment of human cancers” (The Board of Regents of the University of Texas System, priority 2015, dated 2023).
Like-named read-outs stand apart in the source and are kept apart here.

Legend:
[1] = test system: Srebp1 target genes; experiment: cholesterol gene profile in Mut6 cells, Srebp1 targets; format: cell-based, mouse; conditions: Mut6 cells, 2, 9, 16, 24 and 48 hr vs DMSO
Description: (§1) In FIG. 13(a)-(e) Mut6 cells were treated with compound 4C12 for 2, 9, 16, 24, and 48 hr, respectively, and their cholesterol gene profile compared to a DMSO control. […] (f) Western blot. Mut6 cells were treated with vehicle only (−) or with compound 4C12 (+) for 7 hr, 13 hr and 23 hr. Cells were collected, lysed in SDS buffer, subjected to SDS PAGE, and cell proteins transferred to a membrane by a standard protocol.

[2] = test system: Mut6 cells; experiment: cholesterol and triglyceride level (pg/cell) in treated cells; format: cell-based, mouse
Description: (§2) FIG. 12A is a bar graph showing cholesterol (pg/cell), and triglyceride (pg/cell) levels in Mut6 cells treated with compound 4C12 for 24 hours and 48 hours, versus a negative control (vehicle only). […] Mut6 cells were treated with compound 4C12 for 24 hours and then mRNA levels for Hydroxymethylglutaryl-CoA synthase(Hmgcs); 3-hydroxy-3-methylglutaryl-coenzyme A reductase (Hmgcr); acetoacetyl-CoA synthetase (AACS); Delta(24)-sterol reductase (Dhcr24); 7-dehydrocholesterol reductase (Dhcr7), Sterol C5-desaturase (Sc5d); Squalene synthase (SS); and farnesyl pyrophosphate (FPP) synthase (FPPS) were determined.
FIG. 17 compares cholesterol level (pg/cell) (Left) and triglyceride level (pg/cell) (Right) in Mut6 cells and in MEF cells treated with compound 4C12 for 24 hours and 48 hours to a negative control (vehicle).

[3] = test system: Normal astrocytes; experiment: ATP viability of normal astrocytes treated with increasing concentrations; format: cell-based, mouse; conditions: increasing concentrations (FIG. 7A)
Description: (§3) A luminescence-based Celltiter-Glo® assay was performed to measure cell viability, using ATP levels as the readout. In brief, opaque-walled multiwell plates with Mut6 cells in culture medium (25 μl per well, 384-well plates) were prepared. Control wells containing medium without cells were prepared to obtain a value for background luminescence. Test compounds were added to experimental wells, and incubated according to culture protocol. The plate and its contents were incubated at 37° C., 5% […] for 96 hours. An ATP standard curve was generated immediately prior to adding the CellTiter-Glo® Reagent. A volume of CellTiter-Glo® Reagent equal to the volume of cell culture medium present in each well (25 μl of reagent to 25 μl of medium containing cells for a 384-well plate) was added. The contents were mixed for 2 minutes on an orbital shaker to induce cell lysis. The plate was allowed to incubate at room temperature for 10 minutes to stabilize the luminescent signal and luminescence recorded. (e.g. GloMax®, Lumistar, SPECTROstar, PHERAstar FS).
(§4) Normal astrocytes, Mut6 cells and mouse embryonic fibroblasts were treated with increasing concentrations of compound 4C12. […] Normal astrocytes and MEFs were unaffected by compound 4C12.

[4] = test system: SREBP2; experiment: Western blot of SREBP proteins in Mut6 cells; format: cell-based, mouse; conditions: 7 hr, 13 hr and 23 hr
Description: as §1

[5] = test system: Srebp2 target genes in MEFs; experiment: relative mRNA level of cholesterol biosynthesis pathway target genes in MEFs; format: cell-based, mouse; conditions: vs dmso (FIG. 16)
Text: (§5) FIG. 16 is a bar graph of relative mRNA level for cholesterol biosynthesis pathway target genes Hmgcs, Hmgcr, FPPS, LDLR; and SREBP1c in mouse embryo fibroblasts (left) and astrocytes (right) treated with compound 4C12 or dmso (negative control).

[6] = test system: Mut6 cells (TD-NSC); experiment: luminescence-based Celltiter-Glo cell viability assay (ATP levels) on Mut6 tumor derived neuronal stem cells; set-up: species or system mouse; conditions: for EC50: Mus musculus
Procedure, shortened: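 Primary tumor-derived neural stem cells from pooled Mut6 (p53/Pten/Nf1 conditional knockout) GBM tumors, serum-free with defined growth factors. Compound exposure 96 h at 37° C., 5% oxygen; viability by CellTiter-Glo ATP luminescence with cell-free background wells, giving IC50 curves.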

[7] = test system: mouse embryonic fibroblasts (MEFs); experiment: ATP viability of mouse embryonic fibroblasts treated with increasing concentrations; format: cell-based; conditions: increasing concentrations (FIG. 7A)
Description: as §3, §4

[8] = test system: Mut6 cells; experiment: cell-based wash-out time course with ATP assay at 96 hours (FIG. 8); set-up: species or system mouse
Description: FIGS. 8A-B comprising FIG. 8A and FIG. 8B show the identification of molecular changes between 6 hr and 24 hr time points. […] Cells were plated 48 hours before treatment with test compounds Compound 1, Compound 2 and 4C12, and a negative control. Cultures then were treated with the test compound. The media was removed and cells washed twice. Fresh media was added without compound. Data points were 6 hr, 22 hr, 33 hr, 51 hr, 71 hr and continuous. Molecular changes were identified between the 6 hr and 24 hr time points. An ATP assay was performed at 96 hours. On day 2, Cells treated with 4C12 were round-shaped. […] On day 4, 10-20% of the cells were apoptotic. By day 5, 80-90% of the cells were apoptotic.

[9] = test system: cholesterol biosynthesis pathway (Srebp2 target genes); experiment: microarray and mRNA levels of cholesterol synthesis genes in Mut6 cells; format: cell-based, mouse
Description: Microarray analysis was conducted to identify overrepresented pathways associated with treatment with compound 4C12 for 48 hr.
as §2, §1

[10] = test system: Srebp2 target genes in Astrocytes; experiment: relative mRNA level of cholesterol biosynthesis pathway target genes in astrocytes; format: cell-based, mouse; conditions: vs dmso (FIG. 16)
Text: as §5

[11] = S9 Metabolism Assay (half-life by substrate depletion); format: in vitro ADME; conditions: female, ICR/CD-1, S9 fractions, pH 7.5; mouse S9, 2 μM compound; time plotted in min; read-out: S9 T1/2
Description: Female ICR/CD-1 mouse S9 fractions were purchased from Celsis/In Vitro Technologies (Baltimore, Md.). 25 μl (0.5 mg) of S9 protein was added to a 15 ml glass screw cap tube. 350 μl of a 50 mM Tris, pH 7.5 solution, containing the compound of interest was added on ice. The final concentration of compound after addition of all reagents was 2 μM. 125 μl of an NADPH-regenerating system (1.7 mg/ml NADP, 7.8 mg/ml glucose-6-phosphate, 6 U/ml glucose-6-phosphate dehydrogenase in 2% w/v NaHCO3/10 mm MgCl2) was added for analysis of Phase I metabolism. Uridine 5′-diphospho-α-D-glucuronic acid (UDPGA 1.9 mg/ml) and 3′-phosphoadenosine-5′-phosphosulphate (PAPS, 100 mg/ml) were additionally added for phase II reactions. The tube was then placed in a 37° C. shaking water bath. At varying time points after addition of phase I and phase II cofactors, the reaction was stopped by the addition of 0.5 ml of methanol containing 0.2% formic acid and 200 ng/ml internal standard (either n-benzylbenzamide or tolbutamide, Sigma, St. Louis, Mo.). The samples were incubated 10′ at RT and then spun at 16,100×g for 5 min in a microcentrifuge. The supernatant was analyzed by LC-MS/MS. Metabolism of 7-ethoxycoumarin was used to monitor […] performance. Analytical methods were developed for each compound using an Applied Biosystems (Foster City, Calif.) 4000-QTrap, a combination triple quadrupole/ion trap instrument. The parent ion and the two most prominent daughter ions were followed to confirm compound identity, although only the most abundant daughter was used for quantitation. A Shimadzu (Columbia, Md.) Prominence LC with Agilent C18 XDB column (5 micron packing; 50×4.6 mm) was used for chromatography.
The method described in McNaney, et al (McNaney, C A, D M Drexler, S Hnatyshyn, T A Zvyaga, J O Knipe, J V Belcastro, and M Sanders. 2008. An automated liquid chromatography-mass spectrometry process to determine metabolic stability half-life and intrinsic clearance of drug candidates by substrate depletion. Assay and Drug Development Technologies 6:121-129. Determination of Plasma and Brain Pharmacokinetics) was used with modification for determination of metabolic stability half-life by substrate depletion. A “% remaining” value was used to assess metabolic stability of a compound over time. The LC/MS/MS peak area of the incubated sample at each time point was divided by the LC/MS/MS peak area of the time 0 (TO) sample and multiplied by 100. The natural Log (LN) of the % remaining of compound was then plotted versus time (in min) and a linear regression curve plotted going through y-intercept at LN(100).

[12] = Mut6 cells, 24 hours and 48 hours
[13] = 96 h, ATP activity as measure of viability, 96 hours, read-out: EC50 (TD-NSC)

CCN1CCCC1CNC(=O)c1ccc(Sc2ccc(F)cc2)c([N+](=O)[O-])c1 (centres unmarked) [4C12, N-((1-ethylpyrrolidin-2-yl)methyl)-4-((4-fluorophenyl)thio)-3-nitrobenzamide]
effect on Srebp1 target genes [1]: not Srebp1 target genes
specificity of cholesterol decrease ([2]; Mut6 cells vs MEF cells, 24 and 48 hours (FIG. 17)): specific to Mut6 tumor cells
cholesterol (pg/cell) [2, 12]: decreases
triglyceride (pg/cell) [2, 12]: increases
effect on viability of normal astrocytes [3]: unaffected
SREBP2 protein (Western blot) [4]: effective to decrease SREBP2 protein
Srebp2 target genes mRNA in MEFs [5]: not decreased
EC50 ([6]; relative ATP activity versus concentration (FIG. 7A), read-out: ED50 against Mut6 cells): 50 nM
compound-induced cell-death with addition of cholesterol ([6]; Mut6 cells (FIG. 15(b))): inhibits
sensitivity after knock-down of Insig1/Insig2 ([6]; Mut6 cells (FIG. 15(c))): less sensitive
live cells (%) ([6]; Mut6 tumor cells viable after 96 hours (FIG. 7C)): 50%
effect on viability of MEFs [7]: unaffected
cell shape ([8]; day 2): round-shaped
cell cycle state ([8]; day 3): arrested in G2
apoptotic cells ([8]; day 4): 10-20%
apoptotic cells ([8]; day 5): 80-90%
relative ATP activity versus time ([8]; relative to the control (FIG. 8B)): reduced ATP activity as a function of time
effect on Srebp2 target genes ([9]; Mut6 cells, 2, 9, 16, 24 and 48 hr vs DMSO): inhibits Srebp2 target genes
relative mRNA of genes for cholesterol synthesis enzymes ([9]; Mut6 cells, 24 hours): down-regulated
overrepresented pathways by microarray ([9]; treatment for 48 hr): deregulates the cholesterol biosynthesis pathway
Srebp2 target genes mRNA in Astrocytes [10]: not decreased

O=C(NCCCN1CCOCC1)c1ccc(Sc2ccc(F)cc2)c([N+](=O)[O-])c1 [DS-1-283, 4-((4-fluorophenyl)thio)-N-(3-morpholinopropyl)-3-nitrobenzamide]
half-life at 2 μM [11]: 1.56 h
EC50 [6, 13]: 42 nM

CCN1CCCC1CNC(=O)c1ccc(Sc2ccc(F)cc2)c(S(C)(=O)=O)c1 (centres unmarked) [DS-1-301, N-((1-ethylpyrrolidin-2-yl)methyl)-4-((4-fluorophenyl)thio)-3-(methylsulfonyl)benzamide]
half-life at 2 μM [11]: > 4 h
EC50 [6, 13]: 236 nM

N#Cc1cc(C(=O)NCCN2CCOCC2)ccc1Oc1ccc(F)cc1 [DS-2-045, 3-cyano-4-(4-fluorophenoxy)-N-(2-morpholinoethyl)benzamide]
half-life at 2 μM [11]: 1.65 h
EC50 [6, 13]: 74 nM

CCN1CCCC1CNC(=O)c1ccc(Sc2ccc(F)cc2)c(F)c1 (centres unmarked) [DS-2-053, N-((1-ethylpyrrolidin-2-yl)methyl)-3-fluoro-4-((4-fluorophenyl)thio)benzamide]
half-life at 2 μM [11]: 0.683 h
EC50 [6, 13]: 87 nM
